Experimental data taken from patent publication US20230218519A1, “FLUID GEL COMPOSITIONS” (The University of Birmingham, priority 2020, published 2023).
Read-outs that look alike come from different tables or passages of the source.

Key:
[1] = Release assay from PEG-DA fluid gel (trans-well, UV/Vis); assay type: physicochemical; settings: 3% v/v PEG-DA fluid gel (Example 5.3, 500 rpm), into PBS at 37° C., 5 hrs
Procedure: • Active amounts: […] • Standard concentrations of active in PBS were prepared. • Standards were pipetted into a quartz cuvette (1 mm pathlength). • UV/Vis spectroscopy was used to measure absorbance between 200 and 700 nm wavelength. • Curves were plotted and used to determine standard curves which were used to determine concentrations. • 0.5 ml PBS was added to the well of a 24 well plate. • The PBS was incubated at 37° C. to equilibrate. • 0.1 ml of the fluid gel containing active was placed in a trans-well insert. • The trans-well insert was placed into a well containing PBS. • After a given time period the trans-well insert was removed and placed in a fresh well of PBS. • The release media was then removed and analysed using […] spectroscopy. Concentrations were derived from the standard curves and cumulative release plotted as a function of time.

[2] = system: primary ovine chondrocytes; experiment: Metabolic activity assay (PrestoBlue); assay type: cell-based
Procedure: All cell work was undertaken on primary ovine chondrocytes. Cells were first expanded, then seeded into wells 24 hrs prior to the application of the fluid gels. Once treatments were added, the cells were cultured for a further 3 days before testing for both metabolic activity and cell viability. In the presence of functionalised particles, suspension wells were used to promote adhesion to the gelled particles, away from the plastic. Metabolic activity assay was undertaken using a PrestoBlue™ assay kit (Invitrogen). In brief, cells were washed with Dulbecco's PBS, and 1 mL of PrestoBlue™ supplemented medium (10%) was added to each well and incubated for 4 hrs. 50 μL of supernatant from each well was transferred to one well of a 96 well plate and fluorescence was measured using a Tecan Spark (Tecan Group Ltd, UK) plate reader with excitation/emission wavelengths set at 550/620 nm.

Molecule | release of active agent from fluid gel [1] | further results
dextran | able to release | –
CC(C)Cc1ccc(C(C)C(=O)O)cc1 (stereo not shown) [Ibuprofen, ibuprofen] | able to release | –
CC(C)(O)C(=O)c1ccccc1 [Omnirad-1173, 2-hydroxy-2-methyl-1-phenylpropanone] | – | metabolic activity, each constituent part of the PEG-DA formulation ([2]; 3 days culture, PEG-DA not cured, 3.5% & 5%): slight reduction in cell metabolism, although not statistical
CC(C)(O)C(=O)c1ccc(OCCO)cc1 [Irgacure-2959, 1-[4-(2-Hydroxyethoxy)-phenyl]-2-hydroxy-2-methyl-1-propane-1-one] | – | metabolic activity, each constituent part of the PEG-DA formulation [2]: slight reduction in cell metabolism, although not statistical
